# Assay results as given in patent US20150274719A1, “AMINO-SUBSTITUTED IMIDAZO[1,2-A]PYRIDINECARBOXAMIDES AND THEIR USE” (BAYER PHARMA AKTIENGESELLSCHAFT, priority 2012, published 2015).
# Biological target: T1, recombinant guanylate cyclase reporter cell line (Rattus norvegicus, UniProt P19686+P20595)
# T1 construct: expressed in transfected cells; host or cells: recombinant reporter cell line
# T1 sequence (P19686 1-690): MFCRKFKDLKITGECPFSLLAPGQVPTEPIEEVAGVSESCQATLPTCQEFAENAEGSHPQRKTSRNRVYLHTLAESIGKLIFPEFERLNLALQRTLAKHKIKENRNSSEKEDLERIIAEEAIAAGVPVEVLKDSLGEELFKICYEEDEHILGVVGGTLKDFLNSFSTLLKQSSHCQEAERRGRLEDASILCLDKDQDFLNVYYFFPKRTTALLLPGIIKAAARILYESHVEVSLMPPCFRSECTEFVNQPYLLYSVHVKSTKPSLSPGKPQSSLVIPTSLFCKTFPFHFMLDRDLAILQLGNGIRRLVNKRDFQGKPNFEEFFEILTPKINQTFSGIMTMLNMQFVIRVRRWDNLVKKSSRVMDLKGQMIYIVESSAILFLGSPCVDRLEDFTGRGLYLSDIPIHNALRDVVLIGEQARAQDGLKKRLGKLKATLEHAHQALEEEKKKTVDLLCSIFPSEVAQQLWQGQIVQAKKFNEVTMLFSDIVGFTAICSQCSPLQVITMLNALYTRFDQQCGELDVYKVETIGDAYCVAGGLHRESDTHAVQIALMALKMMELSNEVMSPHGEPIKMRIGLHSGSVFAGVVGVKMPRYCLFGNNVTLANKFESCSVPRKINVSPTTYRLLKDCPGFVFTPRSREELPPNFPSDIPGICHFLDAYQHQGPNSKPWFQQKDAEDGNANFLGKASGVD
# T1 sequence (P20595 1-619): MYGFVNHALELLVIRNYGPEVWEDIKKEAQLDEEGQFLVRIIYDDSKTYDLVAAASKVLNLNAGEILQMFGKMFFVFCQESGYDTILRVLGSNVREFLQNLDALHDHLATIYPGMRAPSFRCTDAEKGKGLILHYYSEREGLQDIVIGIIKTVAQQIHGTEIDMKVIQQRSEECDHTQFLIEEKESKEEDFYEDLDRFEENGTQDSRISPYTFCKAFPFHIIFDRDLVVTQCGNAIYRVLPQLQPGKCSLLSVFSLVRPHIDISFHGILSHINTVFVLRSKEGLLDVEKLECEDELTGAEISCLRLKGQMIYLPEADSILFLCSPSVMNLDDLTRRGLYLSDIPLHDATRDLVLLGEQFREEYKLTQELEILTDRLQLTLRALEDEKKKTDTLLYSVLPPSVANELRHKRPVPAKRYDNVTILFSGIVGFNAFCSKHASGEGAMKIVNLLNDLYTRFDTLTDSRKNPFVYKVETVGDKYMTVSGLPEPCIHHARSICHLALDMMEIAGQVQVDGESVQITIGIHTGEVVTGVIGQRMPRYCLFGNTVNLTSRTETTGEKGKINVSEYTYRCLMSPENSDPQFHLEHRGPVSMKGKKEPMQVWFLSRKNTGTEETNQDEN
# Experiment: Action on recombinant guanylate cyclase reporter cell line
# Format: cell-based
# Settings: in some cases mean values from individual determinations
# Summary of the method: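 Cellular activity was measured in a reporter cell line expressing recombinant guanylate cyclase. Values are given as MEC, the minimal effective concentration, and some are means of individual determinations.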
row,Structure (SMILES),MEC (minimal effective concentration) [µM]
1,"Cc1nc2c(OCc3c(F)cccc3F)cc(Cl)cn2c1C(=O)NC1CNCc2ccccc21 (single isomer, unassigned; ent-6) [Example 107, ent-6-chloro-8-[(2,6-difluorobenzyl)oxy]-2-methyl-N-(1,2,3,4-tetrahydroisoquinolin-4-yl)imidazo[1,2-a]pyridine-3-carboxamide]",0.30
2,"Cc1nc2c(OCc3c(F)cccc3F)cc(Cl)cn2c1C(=O)NC1CNCc2ccccc21 (single isomer, unassigned; ent-6) [Example 108, ent-6-chloro-8-[(2,6-difluorobenzyl)oxy]-2-methyl-N-(1,2,3,4-tetrahydroisoquinolin-4-yl)imidazo[1,2-a]pyridine-3-carboxamide]",1.00
3,"Cc1nc2c(OCc3c(F)cccc3F)cccn2c1C(=O)NC1CNc2ccccc21 (single isomer, unassigned; ent-8) [Example 47, ent-8-[(2,6-Difluorobenzyl)oxy]-N-(2,3-dihydro-1H-indol-3-yl)-2-methylimidazo[1,2-a]pyridine-3-carboxamide]",0.30
4,"Cc1nc2c(OCc3c(F)cccc3F)cccn2c1C(=O)NC1CCNc2ccccc21 (single isomer, unassigned; ent-8) [Example 52, ent-8-[(2,6-Difluorobenzyl)oxy]-2-methyl-N-(1,2,3,4-tetrahydroquinolin-4-yl)imidazo[1,2-a]-pyridine-3-carboxamide]",0.03
5,"Cc1nc2c(OCc3c(F)cccc3F)cccn2c1C(=O)NC1CNc2ccccc2C1 (single isomer, unassigned; ent-8) [Example 81, ent-8-[(2,6-Difluorobenzyl)oxy]-2-methyl-N-(1,2,3,4-tetrahydroquinolin-3-yl)imidazo[1,2-a]-pyridine-3-carboxamide]",1.00
6,"Cc1nc2c(OCc3c(F)cccc3F)cccn2c1C(=O)NC1CCNc2ccc(F)cc21 (single isomer, unassigned; ent-8) [Example 105, ent-8-[(2,6-difluorobenzyl)oxy]-N-(6-fluoro-1,2,3,4-tetrahydroquinolin-4-yl)-2-methylimidazo[1,2-a]pyridine-3-carboxamide]",0.30
7,"Cc1nc2c(OCc3c(F)cccc3F)cccn2c1C(=O)NC1CCNc2ccc(F)cc21 (single isomer, unassigned; ent-8) [Example 106, ent-8-[(2,6-difluorobenzyl)oxy]-N-(6-fluoro-1,2,3,4-tetrahydroquinolin-4-yl)-2-methylimidazo[1,2-a]pyridine-3-carboxamide]",0.03
8,"Cc1nc2c(OCc3c(F)cccc3F)cccn2c1C(=O)NC1CNCc2ccccc21 (single isomer, unassigned; ent-8) [Example 109, ent-8-[(2,6-difluorobenzyl)oxy]-2-methyl-N-(1,2,3,4-tetrahydroisoquinolin-4-yl)imidazo[1,2-a]pyridine-3-carboxamide]",1.00
9,"Cc1nc2c(OCc3c(F)cccc3F)cccn2c1C(=O)NC1CNCc2ccccc21 (single isomer, unassigned; ent-8) [Example 110, ent-8-[(2,6-difluorobenzyl)oxy]-2-methyl-N-(1,2,3,4-tetrahydroisoquinolin-4-yl)imidazo[1,2-a]pyridine-3-carboxamide]",0.30
10,"Cc1nc2c(OCc3c(F)cccc3F)cccn2c1C(=O)NC1CCNc2ccc(C(F)(F)F)cc21 (single isomer, unassigned; ent-8) [Example 111, ent-8-[(2,6-difluorobenzyl)oxy]-2-methyl-N-[6-(trifluoromethyl)-1,2,3,4-tetrahydroquinolin-4-yl]imidazo[1,2-a]pyridine-3-carboxamide]",1.00
11,"Cc1nc2c(OCc3c(F)cccc3F)cccn2c1C(=O)NC1CCNc2ccc(C(F)(F)F)cc21 (single isomer, unassigned; ent-8) [Example 112, ent-8-[(2,6-difluorobenzyl)oxy]-2-methyl-N-[6-(trifluoromethyl)-1,2,3,4-tetrahydroquinolin-4-yl]imidazo[1,2-a]pyridine-3-carboxamide]",0.10
12,"Cc1nc2c(OCc3c(F)cccc3F)cccn2c1C(=O)NCC(C)N1CCOCC1 (single isomer, unassigned; ent-8) [Example 180, ent-8-[(2,6-Difluorobenzyl)oxy]-2-methyl-N-[2-(morpholin-4-yl)propyl]imidazo[1,2-a]pyridine-3-carboxamide]",1.00

# The remaining lines, values ahead:
row,MEC (minimal effective concentration) [µM],Structure (SMILES)
1,0.30,"Cc1cc(OCc2c(F)cccc2F)c2nc(C)c(C(=O)NCC(N)C#N)n2c1 (single isomer, unassigned; enantiomer b) [Example 402, ent-N-(2-amino-2-cyanoethyl)-8-[(2,6-difluorobenzyl)oxy]-2,6-dimethylimidazo[1,2-a]pyridine-3-carboxamide (Enantiomer B)]"
2,1.00,"Cc1nc2c(OCc3c(F)cccc3F)cc(Cl)cn2c1C(=O)NCC1CCCCN1 (single isomer, unassigned; ent-6) [Example 190, ent-6-Chloro-8-[(2,6-difluorobenzyl)oxy]-2-methyl-N-(piperidin-2-ylmethyl)imidazo[1,2-a]-pyridine-3-carboxamide]"
3,1.00,"Cc1nc2c(OCc3c(F)cccc3F)cc(Cl)cn2c1C(=O)NCC1CCCCN1 (single isomer, unassigned; ent-6) [Example 191, ent-6-Chloro-8-[(2,6-difluorobenzyl)oxy]-2-methyl-N-(piperidin-2-ylmethyl)imidazo[1,2-a]-pyridine-3-carboxamide]"
4,1.00,"Cc1nc2c(OCc3c(F)cccc3F)cccn2c1C(=O)NCC(C)N1CCOCC1 (single isomer, unassigned; ent-8) [Example 181, ent-8-[(2,6-Difluorobenzyl)oxy]-2-methyl-N-[2-(morpholin-4-yl)propyl]imidazo[1,2-a]pyridine-3-carboxamide]"
5,3.00,"Cc1nc2c(OCc3c(F)cccc3F)cccn2c1C(=O)NC(CN1CCOCC1)c1ccccc1 (single isomer, unassigned; ent-8) [Example 182, ent-8-[(2,6-Difluorobenzyl)oxy]-2-methyl-N-[2-(morpholin-4-yl)-1-phenylethyl]imidazo[1,2-a]-pyridine-3-carboxamide]"
6,1.00,"Cc1nc2c(OCc3c(F)cccc3F)cccn2c1C(=O)NC(CN1CCOCC1)c1ccccc1 (single isomer, unassigned; ent-8) [Example 183, ent-8-[(2,6-Difluorobenzyl)oxy]-2-methyl-N-[2-(morpholin-4-yl)-1-phenylethyl]imidazo[1,2-a]-pyridine-3-carboxamide]"
7,0.30,"Cc1cc(OCc2c(F)cccc2F)c2nc(C)c(C(=O)NCC(C)N3CCOCC3)n2c1 (single isomer, unassigned; ent-8) [Example 186, ent-8-[(2,6-Difluorobenzyl)oxy]-2,6-dimethyl-N-[2-(morpholin-4-yl)propyl]imidazo[1,2-a]-pyridine-3-carboxamide]"
8,0.30,"Cc1cc(OCc2c(F)cccc2F)c2nc(C)c(C(=O)NCC(C)N3CCOCC3)n2c1 (single isomer, unassigned; ent-8) [Example 187, ent-8-[(2,6-Difluorobenzyl)oxy]-2,6-dimethyl-N-[2-(morpholin-4-yl)propyl]imidazo[1,2-a]-pyridine-3-carboxamide]"
9,1.00,"Cc1nc2c(OCc3c(F)cccc3F)cccn2c1C(=O)NCC(C(C)C)N(C)C (single isomer, unassigned; ent-8) [Example 188, ent-8-[(2,6-Difluorobenzyl)oxy]-N-[2-(dimethylamino)-3-methylbutyl]-2-methylimidazo[1,2-a]-pyridine-3-carboxamide]"
